Data taken from US5310727A, “Pharmaceutical compositions for parenteral use containing a calcitonin as the active ingredient” (Scalvo S.p.A., priority 1986, dated 1994).
Where a SMILES comes first, the peptide text is derived from it. Bridges are numbered along the chain shown (N, C = ends).

Assay: Solubility of the ingredient in water (description)
Type: physicochemical
Details: white fluffy powder

Solubility in water: easily soluble in water
Compound: CC(C)C[C@H](NC(=O)[C@H](CCCCN)NC(=O)CNC(=O)[C@H](CC(C)C)NC(=O)[C@@H](NC(=O)[C@@H]1CSSC[C@H](N)C(=O)N[C@@H](CO)C(=O)N[C@@H](CC(N)=O)C(=O)N[C@@H](CC(C)C)C(=O)N[C@@H](CO)C(=O)N[C@@H]([C@@H](C)O)C(=O)N1)C(C)C)C(=O)N[C@@H](CO)C(=O)N[C@@H](CCC(N)=O)C(=O)N[C@@H](CCC(=O)O)C(=O)N[C@@H](CC(C)C)C(=O)N[C@@H](Cc1c[nH]cn1)C(=O)N[C@@H](CCCCN)C(=O)N[C@@H](CC(C)C)C(=O)N[C@@H](CCC(N)=O)C(=O)N[C@H](C(=O)N[C@@H](Cc1ccc(O)cc1)C(=O)N1CCC[C@H]1C(=O)N[C@@H](CCCNC(=N)N)C(=O)N[C@H](C(=O)N[C@@H](CC(=O)O)C(=O)N[C@H](C(=O)NCC(=O)N[C@@H](C)C(=O)NCC(=O)N[C@H](C(=O)N1CCC[C@H]1C(N)=O)[C@@H](C)O)C(C)C)[C@@H](C)O)[C@@H](C)O [eel calcitonin, eel calcitonin (synthetic)] (H-CSNLSTCVLGKLSQELHKLQTYPRTDVGAGTP-NH2; disulfide 1-7)
